Measurements as given in patent US20230142542A1, “USE OF SUBSTITUTED 1,2,4-OXADIAZOLES FOR COMBATING PHYTOPATHOGENIC FUNGI” (BASF SE, priority 2020, published 2023).

melting point: 119 to 121 °C
SMILES: O=C(O)C(F)(F)c1ccc(-c2noc(C(F)(F)F)n2)cc1 [I-2, 2,2-difluoro-2-[4-[5-(trifluoromethyl)-1,2,4-oxadiazol-3-yl]phenyl]acetic acid]
